# According to paper PMC12336824 (The Journal of Biological Chemistry, 2025):
# Tested on: V. cholerae Δnqr mutant
# Assay: microbe, parasite or virus in culture
# Format: cell-based
smiles,measurement,setting,value
CC(C)/N=c1\cc2n(-c3ccc(Cl)cc3)c3ccccc3nc-2cc1Nc1ccc(Cl)cc1 [clofazimine],resistance of the growth to saturating concentrations of inhibitor,,about 40%
same,MIC50,"Vibrio cholerae, 8 h",23 ± 6 µM
